Assay results reported in patent US20080146502A1, “Methods for modulating the sensation of satiety perception and agents useful for same” (Autogen Research Pty Ltd., priority 2004, published 2008).
≈ marks a conversion by molar mass, not a printed value.

Experiments:
food intake in rats = experiment: Food intake in fasted rats after single intragastric gavage; assay type: in vivo; details: for Food Intake: 5 mg/kg in saline, mean ± sem
Experimental: Adult, male rats were fasted for 16 hours then administered with a single intragastric gavage of 1-[beta-[3-(4-Methoxyphenyl)propoxy]-4-methoxyphenethyl]-1H-imidazole.HCl at a dose of 5 mg/kg in saline in a volume of 0.5 ml, or saline alone (0.5 ml). There were 8 animals in each group. Food intake was measured at various timepoints over the following 24 hours.

[1] = cited from earlier work
[2] = system: receptor-mediated Ca^2+ entry in neutrophils; details: cited from earlier work
[3] = system: receptor-mediated Ca^2+ entry in endothelial cells; details: cited from earlier work
[4] = system: receptor-mediated Ca^2+ entry in stimulated platelets; details: cited from earlier work
TRPV channels = details: cited from earlier work

With `COc1ccc(CCCOC(Cn2ccnc2)c2ccc(OC)cc2)cc1` (stereo not drawn) [1-[β-[3-(4-methoxyphenyl)propoxy]-4-methoxyphenethyl]-1H-imidazole] the “food intake, trend vs saline” value (food intake in rats; 5 mg/kg gavage, after 3 h, 5 h, 6 h, 8 h, 9 h, 10 h and 24 h, p<0.10) was “strong trends for reduced food intake”, the “Food Intake” value (food intake in rats; 0.5 h after single intragastric gavage, rats fasted 16 h) was 2.4 ± 0.3 g and the “Food Intake” value (food intake in rats; 1 h after single intragastric gavage, rats fasted 16 h) was 2.8 ± 0.3 g. For the same molecule, the “Food Intake” value (food intake in rats; 2 h after single intragastric gavage, rats fasted 16 h) was 2.9 ± 0.3 g, the “Food Intake” value (food intake in rats; 3 h after single intragastric gavage, rats fasted 16 h) was 3.8 ± 0.4 g and the “Food Intake” value (food intake in rats; 4 h after single intragastric gavage, rats fasted 16 h) was 4.9 ± 0.5 g. The “Food Intake” value (food intake in rats; 5 h after single intragastric gavage, rats fasted 16 h) was 5.1 ± 0.5 g, the “Food Intake” value (food intake in rats; 6 h after single intragastric gavage, rats fasted 16 h) was 6.3 ± 0.5 g and the “Food Intake” value (food intake in rats; 7 h after single intragastric gavage, rats fasted 16 h) was 7.4 ± 0.6 g. For the same molecule, the “Food Intake” value (food intake in rats; 8 h after single intragastric gavage, rats fasted 16 h) was 8.2 ± 0.6 g, the “Food Intake” value (food intake in rats; 9 h after single intragastric gavage, rats fasted 16 h) was 9.3 ± 0.6 g and the “Food Intake” value (food intake in rats; 10 h after single intragastric gavage, rats fasted 16 h) was 10.3 ± 0.6 g. For the same molecule, the “Food Intake” value (food intake in rats; 11 h after single intragastric gavage, rats fasted 16 h) was 11.5 ± 0.6 g, the “Food Intake” value (food intake in rats; 12 h after single intragastric gavage, rats fasted 16 h) was 12.4 ± 0.6 g and the “Food Intake” value (food intake in rats; 24 h after single intragastric gavage, rats fasted 16 h) was 18.4 ± 0.8 g. For the same molecule, the “food intake over the period of the study” value (food intake in rats; rats fasted 16 h, 5 mg/kg single intragastric gavage in saline vs saline alone, 24 h) was “reduced food intake over the period of the study”, the Solubility in water [1] was 30 mg/mL (≈ 81.9 mM) and the “inhibition of receptor-mediated Ca^2+ entry” value [2] was “selective inhibitor”. For the same molecule, the “inhibition of receptor-mediated Ca^2+ entry” value [3] was “selective inhibitor” and the IC50 [4] was 8 to 12 µM.
For `N.N.N.N.N.N.N.N.N.N.N.N.N.N.[Cl-].[Cl-].[Cl-].[Cl-].[Cl-].[Cl-].[O-2].[O-2].[Ru+3].[Ru+3].[Ru+4]` [Ruthenium Red], the “block of TRPV channels” value (TRPV channels) is listed as “blocks all TRPV channels”.
